The subject of data set [1] is cervical cancer cell line Hela S3. Description: Cell death of cervical cancer cell line Hela S3. The class given is cell-based.
For data set [2] the following is noted: rat, intravenous injection, approximately 172 mg/kg during a six hour period, 0.7% saline.

The source of these data is patent US20110039815A1, “MACROCYCLIC METAL COMPLEXES FOR THEIR USE AS ANTICANCER AGENTS” (priority 2005, published 2011).

On to ^Me3TacnRhCl3 [formula 8], for which the stability in water result is “stable”. The “anticancer activity against Hela S3” value in data set [1] was “positive”. Also, the “Hela cell death rate” value in data set [1] (10^−2 molar preparation (1.5×10^−2 M)) is on record as “approximately 93.1%”. Further, the “Hela cell death rate” value in data set [1] (10^−3 molar preparation (1.5×10^−3 M)) is given as “approximately 90%”. Moreover, the “complex-related toxicity or side effects” value in data set [2] is “no complex-related toxicity or side effects”.
